Data taken from US10669290B2, “Beta-lactamase inhibitors” (priority 2012, dated 2020).
Where two headings read alike, the source gives them in different places.

Assays:
E. coli ESBL4 CTX-M-15 = assay: Broth microdilution MIC, E. coli ESBL4; assay type: cell-based; settings: fixed ceftazidime 4 μg/mL, CAMHB, 16-20 hours 37° C.; for MIC: Escherichia coli, ESBL4CTXM15, read-out: MIC of exemplary compounds in presence of fixed β-lactams, Fixed CAZ, E. coli ESBL4 CTX-M-15
Summary of the method: (§1)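 Test compound was 2-fold serially diluted in cation-adjusted Mueller Hinton broth (final 32 to 0.25 μg/mL) under a fixed β-lactam overlay at 4 μg/ml. Plates were inoculated per CLSI broth microdilution with 3-5 h cultures, incubated 16-20 hours at 37° C, and MIC was read visually.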

E. cl 144200 p99 AmpC = assay: Broth microdilution MIC, E. cloacae 144200; assay type: cell-based; settings: fixed ceftazidime 4 μg/mL, CAMHB, 16-20 hours 37° C.; for MIC: Enterobacter cloacae, read-out: MIC of exemplary compounds in presence of fixed β-lactams, Fixed CAZ, E. cl 144200 p99 AmpC
Summary of the method: as §1

P. aerug. Ps296 VIM-2 = assay: Broth microdilution MIC, P. aeruginosa Ps296; assay type: cell-based; settings: fixed meropenem 4 μg/mL, CAMHB, 16-20 hours 37° C.; for MIC: Pseudomonas aeruginosa, read-out: MIC of exemplary compounds in presence of fixed β-lactams, Fixed Mero, P. aerug. Ps296 VIM-2
Summary of the method: as §1

p99 AmpC = target: T1, p99 AmpC (Enterobacter cloacae, UniProt P05364); assay: β-Lactamase inhibition, p99 AmpC (nitrocefin substrate); assay type: biochemical
T1 construct: made in house; host or cells: E. coli BL21 (DE3)
Procedure: (§2) For SHV-5, Kpc-2, p99AmpC and OXA-1 β-lactamases, E. coli BL21 (DE3) bacterial cells carrying expression plasmids (expressed as native untagged proteins) for the individual β-lactamases were grown in 1 L of Superbroth (Teknova Inc. Hollister, Calif.) supplemented with 100 μg/ml kanamycin selection and 1×5052 (0.5% glycerol, 0.05% glucose and 0.2% α-lactose) at 35° C. for 18-20 hours. Cells were harvested by centrifugation (4,000×g, 4° C., 20 min), resuspended in 50 ml of 10 mM HEPES pH 7.5 ( 1/20 of the initial volume). The cells were lysed by sonication (5 pulses of 45 seconds) at 45 W on ice. The lysates were clarified by centrifugation at 10,000×g for 40 minutes at 4° C. Samples were diluted 5-fold in 50 mM sodium acetate pH 5.0, stored overnight at 4° C., after which they were centrifuged at 10,000×g for 30 minutes to clarify, and filtered through 0.45 µm filters. The samples were loaded onto a 5 ml Capto S sepharose cation exchange column (GE Healthcare) pre-equilibrated with 50 mM sodium acetate pH 5.0. The column was washed with 5 column volumes of 50 mM sodium acetate pH 5.0 to wash out unbound protein and a linear gradient of NaCl (0 to 500 mM) was used to elute the protein (over 16 CV) from the column. Fractions were assayed for β-lactamase activity using Centa (Calbiochem, Gibbstown, N.J.) or Nitrocefin (EMD Millipore chemicals, Darmstadt, Germany) as a reporter β-lactamase substrate for activity in the isolated fractions. Active fractions were pooled, concentrated and further purified by gel filtration chromatography on a Superdex 75 prep grade gel filtration column (GE Healthcare, Piscataway, N.J.) pre-equilibrated in 50 mM Hepes pH 7.5, 150 mM NaCl. Active fractions were pooled concentrated, quantitated by BCA protein determination (Thermo Scientific, Rockford, Ill.), dialyzed into PBS and frozen at −80° C. in 20% glycerol until use.
(§3) An equal volume of diluted enzyme stock was added, and the plates were incubated at 37° C. for 15 min. Nitrocefin was used as substrate for p99 AmpC, VIM-2 and OXA-1 and dispensed into each well at a final concentration of 100 μM. Absorbance at 486 nm was immediately monitored for 10 min using a Biotek Powerwave XS2 microplate spectrophotometer using the GEN5 software package (Biotek Instruments, Winooski Vt.). In an analogous fashion, imipenem was used as substrate for Kpc-2 and Cefotaxime was used for SHV-5, while changes in absorbance upon hydrolysis of the β-lactam ring were monitored at 300 nm and 260 nm respectively in UV-transparent 96-well microtiter assay plates. Maximum rates of hydrolysis were compared to those in control wells (without inhibitors), and percentages of enzyme inhibition were calculated for each concentration of inhibitor. The concentration of inhibitor needed to reduce the initial rate of hydrolysis of substrate by 50% (IC50) was calculated as the residual activity of β-lactamase at 486 nm using GraFit version 7 kinetics software package (Erithacus Software, Surrey, UK).
Using the methodology described above, examples of the current invention were evaluated for their ability to inhibit β-lactamase enzymes from all four Ambler classifications (A through D). […] NT=Not tested.

VIM-2 = target: T2, VIM-2 (Escherichia coli, UniProt Q5U7L7); assay: β-Lactamase inhibition, VIM-2 (nitrocefin substrate); assay type: biochemical
T2 construct: made in house; host or cells: E. coli BL21 (DE3)
Procedure: as §2, with “The column was washed with 5 column volumes of 50 mM sodium acetate pH 5.0 to wash out unbound protein and a linear gradient of NaCl (0 to 500 mM) was used to elute the protein (over 16 CV) from the column. Fractions were assayed for β-lactamase activity using Centa (Calbiochem, Gibbstown, N.J.) or Nitrocefin (EMD Millipore chemicals, Darmstadt, Germany) as a reporter β-lactamase substrate for activity in the isolated fractions. Active fractions were pooled, concentrated and further purified by gel filtration chromatography on a Superdex 75 prep grade gel filtration column (GE Healthcare, Piscataway, N.J.) pre-equilibrated in 50 mM Hepes pH 7.5, 150 mM NaCl.” left out, “use. […]” for “use.”
as §3, with “Nitrocefin was used as substrate for p99 AmpC, VIM-2 and OXA-1 and dispensed into each well at a final concentration of 100 μM.” left out, “The concentration of inhibitor needed to reduce the initial rate of hydrolysis of substrate by 50% (IC50) was calculated as the residual activity of β-lactamase at 486 nm using GraFit version 7 kinetics software package (Erithacus Software, Surrey, UK).” left out

OXA-1 = target: T3, OXA-1 (Escherichia coli, UniProt P13661); assay: β-Lactamase inhibition, OXA-1 (nitrocefin substrate); assay type: biochemical
T3 construct: made in house; host or cells: E. coli BL21 (DE3)
Procedure: as §2, with “The column was washed with 5 column volumes of 50 mM sodium acetate pH 5.0 to wash out unbound protein and a linear gradient of NaCl (0 to 500 mM) was used to elute the protein (over 16 CV) from the column. Fractions were assayed for β-lactamase activity using Centa (Calbiochem, Gibbstown, N.J.) or Nitrocefin (EMD Millipore chemicals, Darmstadt, Germany) as a reporter β-lactamase substrate for activity in the isolated fractions. Active fractions were pooled, concentrated and further purified by gel filtration chromatography on a Superdex 75 prep grade gel filtration column (GE Healthcare, Piscataway, N.J.) pre-equilibrated in 50 mM Hepes pH 7.5, 150 mM NaCl.” left out
as §3, with “Nitrocefin was used as substrate for p99 AmpC, VIM-2 and OXA-1 and dispensed into each well at a final concentration of 100 μM.” left out, “The concentration of inhibitor needed to reduce the initial rate of hydrolysis of substrate by 50% (IC50) was calculated as the residual activity of β-lactamase at 486 nm using GraFit version 7 kinetics software package (Erithacus Software, Surrey, UK).” left out

K.P. 156319 KPC-3 = assay: Broth microdilution MIC, K. pneumoniae 156319; assay type: cell-based; settings: fixed meropenem 4 μg/mL, CAMHB, 16-20 hours 37° C.; for MIC: Klebsiella pneumoniae, read-out: MIC of exemplary compounds in presence of fixed β-lactams, Fixed Mero, K.P. 156319 KPC-3
KPC-2 = target: T4, KPC-2 (Klebsiella pneumoniae, UniProt Q9F663); assay: β-Lactamase inhibition, KPC-2 (imipenem substrate); assay type: biochemical
T4 construct: made in house; host or cells: E. coli BL21 (DE3)
Procedure: as §2, with “The column was washed with 5 column volumes of 50 mM sodium acetate pH 5.0 to wash out unbound protein and a linear gradient of NaCl (0 to 500 mM) was used to elute the protein (over 16 CV) from the column. Fractions were assayed for β-lactamase activity using Centa (Calbiochem, Gibbstown, N.J.) or Nitrocefin (EMD Millipore chemicals, Darmstadt, Germany) as a reporter β-lactamase substrate for activity in the isolated fractions. Active fractions were pooled, concentrated and further purified by gel filtration chromatography on a Superdex 75 prep grade gel filtration column (GE Healthcare, Piscataway, N.J.) pre-equilibrated in 50 mM Hepes pH 7.5, 150 mM NaCl.” left out
as §3, with “Nitrocefin was used as substrate for p99 AmpC, VIM-2 and OXA-1 and dispensed into each well at a final concentration of 100 μM.” left out, “The concentration of inhibitor needed to reduce the initial rate of hydrolysis of substrate by 50% (IC50) was calculated as the residual activity of β-lactamase at 486 nm using GraFit version 7 kinetics software package (Erithacus Software, Surrey, UK).” left out

K.P. A-1797 KPC-2 VIM-4 = assay: Broth microdilution MIC, K. pneumoniae A-1797; assay type: cell-based; settings: fixed meropenem 4 μg/mL, CAMHB, 16-20 hours 37° C.; for MIC: Klebsiella pneumoniae, read-out: MIC of exemplary compounds in presence of fixed β-lactams, Fixed Mero, K.P. A-1797 KPC-2 VIM-4
SHV-5 = target: T5, SHV-5 (Klebsiella pneumoniae, UniProt P0A3M1); assay: β-Lactamase inhibition, SHV-5 (cefotaxime substrate); assay type: biochemical
T5 construct: made in house; host or cells: E. coli BL21 (DE3)
Procedure: as §2, with “The column was washed with 5 column volumes of 50 mM sodium acetate pH 5.0 to wash out unbound protein and a linear gradient of NaCl (0 to 500 mM) was used to elute the protein (over 16 CV) from the column. Fractions were assayed for β-lactamase activity using Centa (Calbiochem, Gibbstown, N.J.) or Nitrocefin (EMD Millipore chemicals, Darmstadt, Germany) as a reporter β-lactamase substrate for activity in the isolated fractions. Active fractions were pooled, concentrated and further purified by gel filtration chromatography on a Superdex 75 prep grade gel filtration column (GE Healthcare, Piscataway, N.J.) pre-equilibrated in 50 mM Hepes pH 7.5, 150 mM NaCl.” left out
as §3, with “Nitrocefin was used as substrate for p99 AmpC, VIM-2 and OXA-1 and dispensed into each well at a final concentration of 100 μM.” left out, “The concentration of inhibitor needed to reduce the initial rate of hydrolysis of substrate by 50% (IC50) was calculated as the residual activity of β-lactamase at 486 nm using GraFit version 7 kinetics software package (Erithacus Software, Surrey, UK).” left out

S. aureus MSSA-7 PC-1 = assay: Broth microdilution MIC, S. aureus MSSA-7; assay type: cell-based; settings: Staphylococcus aureus, fixed piperacillin 4 μg/mL, CAMHB, 16-20 hours 37° C., read-out: MIC of exemplary compounds in presence of fixed β-lactams, Fixed Pip, S. aureus MSSA-7 PC-1
[1] = nitrocefin 100 μM, 486 nm, 15 min preincubation 37° C., PBS pH 7.4, read-out: IC50 AmpC (Class C)

T1 sequence (P05364 21-381): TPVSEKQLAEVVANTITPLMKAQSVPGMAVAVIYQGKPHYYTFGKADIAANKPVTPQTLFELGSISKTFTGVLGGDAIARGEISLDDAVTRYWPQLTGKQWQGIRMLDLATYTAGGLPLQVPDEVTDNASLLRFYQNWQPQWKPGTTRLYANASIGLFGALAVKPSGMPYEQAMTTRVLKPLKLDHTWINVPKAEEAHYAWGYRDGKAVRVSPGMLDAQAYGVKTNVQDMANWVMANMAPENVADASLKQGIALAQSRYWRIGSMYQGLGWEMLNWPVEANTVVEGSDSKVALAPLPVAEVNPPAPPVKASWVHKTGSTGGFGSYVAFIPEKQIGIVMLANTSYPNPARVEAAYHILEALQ
T3 sequence (P13661 26-276): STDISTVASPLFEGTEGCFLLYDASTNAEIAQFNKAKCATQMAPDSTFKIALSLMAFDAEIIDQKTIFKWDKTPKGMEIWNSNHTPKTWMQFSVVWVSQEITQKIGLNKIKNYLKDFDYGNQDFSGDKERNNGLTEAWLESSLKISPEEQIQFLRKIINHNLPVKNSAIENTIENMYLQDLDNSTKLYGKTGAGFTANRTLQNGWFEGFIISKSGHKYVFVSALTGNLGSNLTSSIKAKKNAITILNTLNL
T5 sequence (P0A3M1 22-286): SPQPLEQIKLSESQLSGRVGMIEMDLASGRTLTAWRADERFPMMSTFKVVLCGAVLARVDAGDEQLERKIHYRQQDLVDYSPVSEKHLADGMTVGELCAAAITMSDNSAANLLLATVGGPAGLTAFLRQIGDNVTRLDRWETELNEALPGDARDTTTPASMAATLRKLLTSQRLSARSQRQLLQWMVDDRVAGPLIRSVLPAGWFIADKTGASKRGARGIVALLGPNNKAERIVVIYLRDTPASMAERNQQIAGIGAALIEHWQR
T4 sequence (Q9F663 25-293 limits assumed): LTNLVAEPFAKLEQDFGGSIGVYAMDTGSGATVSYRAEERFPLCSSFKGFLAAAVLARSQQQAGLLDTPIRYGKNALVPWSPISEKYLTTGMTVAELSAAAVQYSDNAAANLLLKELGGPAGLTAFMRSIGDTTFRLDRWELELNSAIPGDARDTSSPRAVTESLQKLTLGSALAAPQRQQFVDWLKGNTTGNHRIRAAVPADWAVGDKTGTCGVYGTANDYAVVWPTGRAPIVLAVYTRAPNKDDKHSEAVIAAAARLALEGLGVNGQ

## N[C@@H]1CC[C@@H](C(=O)N[C@H]2Cc3cccc(C(=O)O)c3OB2O)C[C@H]1N (mixture of isomers) [Example 20, (3R)-3-[[(1S,3S,4S)-3,4-diaminocyclohexanecarbonyl]amino]-2-hydroxy-3,4-dihydro-1,2-benzoxaborinine-8-carboxylic acid and (3R)-3-[[(1R,3R,4R)-3,4-diaminocyclohexanecarbonyl]amino]-2-hydroxy-3,4-dihydro-1,2-benzoxaborinine-8-carboxylic acid]
E. coli ESBL4 CTX-M-15
  MIC of exemplary compounds in presence of fixed β-lactams, Fixed CAZ, E. coli ESBL4 CTX-M-15: C (C represents the MIC in the presence of <4 μg/mL of a β-lactamase inhibitor of exemplary compounds)
E. cl 144200 p99 AmpC
  MIC of exemplary compounds in presence of fixed β-lactams, Fixed CAZ, E. cl 144200 p99 AmpC: C (C represents the MIC in the presence of <4 μg/mL of a β-lactamase inhibitor of exemplary compounds)
P. aerug. Ps296 VIM-2
  MIC of exemplary compounds in presence of fixed β-lactams, Fixed Mero, P. aerug. Ps296 VIM-2: C (C represents the MIC in the presence of <4 μg/mL of a β-lactamase inhibitor of exemplary compounds)
p99 AmpC
  IC50: < 100 nM
VIM-2
  IC50: < 100 nM
OXA-1
  IC50: 100 to 1000 nM
K.P. 156319 KPC-3
  MIC of exemplary compounds in presence of fixed β-lactams, Fixed Mero, K.P. 156319 KPC-3: C (C represents the MIC in the presence of <4 μg/mL of a β-lactamase inhibitor of exemplary compounds)
KPC-2
  IC50: 100 to 1000 nM
K.P. A-1797 KPC-2 VIM-4
  MIC of exemplary compounds in presence of fixed β-lactams, Fixed Mero, K.P. A-1797 KPC-2 VIM-4: B (B represents the MIC in the presence of between 8 and 32 μg/mL of a β-lactamase inhibitor of exemplary compounds)
SHV-5
  IC50: 1000 to 10000 nM

## N=C(N)N1CCN([C@H]2CC[C@H](CC(=O)N[C@H]3Cc4cccc(C(=O)O)c4OB3O)CC2)CC1 [Example 24, (R)-3-(2-(trans-4-(4-carbamimidoylpiperazin-1-yl)cyclohexyl)acetamido)-2-hydroxy-3,4-dihydro-2H-benzo[e][1,2]oxaborinine-8-carboxylic acid]
E. coli ESBL4 CTX-M-15
  MIC: < 4 µg/mL
E. cl 144200 p99 AmpC
  MIC: < 4 µg/mL
P. aerug. Ps296 VIM-2
  MIC: 8 to 32 µg/mL
p99 AmpC; [1]
  IC50: < 100 nM
K.P. 156319 KPC-3
  MIC: < 4 µg/mL
S. aureus MSSA-7 PC-1
  MIC: < 4 µg/mL
K.P. A-1797 KPC-2 VIM-4
  MIC: < 4 µg/mL

## O=C(CC1CCC(O)CC1)N[C@H]1Cc2cccc(C(=O)O)c2OB1O (stereo partly drawn) [Example 47, (3R)-2-hydroxy-3-(2-(4-hydroxycyclohexyl)acetamido)-3,4-dihydro-2H-benzo[e][1,2]oxaborinine-8-carboxylic acid]
E. coli ESBL4 CTX-M-15
  MIC: < 4 µg/mL
E. cl 144200 p99 AmpC
  MIC: < 4 µg/mL
P. aerug. Ps296 VIM-2
  MIC: 8 to 32 µg/mL
p99 AmpC; [1]
  IC50: < 100 nM
K.P. 156319 KPC-3
  MIC: < 4 µg/mL
S. aureus MSSA-7 PC-1
  MIC: < 4 µg/mL
K.P. A-1797 KPC-2 VIM-4
  MIC: > 32 µg/mL
